The target of one series is mTOR (Homo sapiens (Human), UniProt P42345). Description: mTOR enzymatic assay. The note with it: read-out: In vitro enzymatic activity (IC50) mTOR. The series is classed as biochemical. The procedure:
(§1) Assay 1-2: In Vitro Enzymatic Inhibitory Activity of the Present Compound
1. Preparation of Agents:
(§2) • 1.1 1-fold kinase buffer: 50 mM HEPES, pH 7.5, 10 mM MgCl2, 1 mM EGTA, 3 mM MnCl2, 0.01% Tween-20, 2 mM DTT; • 1.2 4-fold kinase solution: mTOR kinase was added to 1-fold kinase buffer to form 4-fold kinase solution with a final concentration of 2.5 nM; • 1.3 2-fold substrate and ATP solution: the substrate 4EBP1 and ATP were added to 1-fold kinase buffer to form 2-fold substrate solution with final concentration of 50 nM of 4EBP1 and 10.8 μM of ATP; • 1.4 4-fold test substance solutions: 100-fold test substance solutions in different gradient concentrations were formulated with 100% DMSO, and diluted by 25 folds with 1-fold kinase buffer to form 4-fold test substance solutions in different gradient concentrations. • 1.5 Preparation of detection solution: a detection solution containing 2-fold final concentrations of EDTA and 4EBP1 phosphorylated antibody was formulated, wherein the final concentration for EDTA was 8 mM, and the final concentration for the 4EBP phosphorylated antibody was 2 nM. 2. Procedure • 2.1 To each well of a 384-well plate was added 2.5 μL of the 4-fold test substance solutions in gradient concentrations. The replication was made. • 2.2 To each well was added 2.5 μL of 4-fold kinase solution, and then the plate was incubated for 10 mins; • 2.3 Then to each well was added 5 μL/of 2-fold substrate and ATP solution, and then the plate was incubated at room temperature for 1 hour; • 2.4 Finally, 10 μL of the detection solution was added to terminate the reaction. After 60 mins, the data Lance signal ([…]) was read from Envision. 3 Data treatment Inhibition rate (%)=[…] • wherein: • maximum refers to the reading at the DMSO control well. • minimum refers to the reading at the control well without kinase, • The data was input into Graphpad Prism 5.0 to plot and obtain the curve and IC50 value. PI3Kα Enzymatic Assay 1. […] After 15 mins, the data Lance signal ([…]) was read from Envision. 3 Data treatment Inhibition rate (%)=100−(sample value−minimum)/(maximum−minimum)×100 • wherein: • maximum refers to the reading at the control well without kinase, • minimum refers to the reading at the DMSO control well, • The data was input into Graphpad Prism 5.0 to plot and obtain the curve and IC50 value. […]

The next series concerns the target PI3Kα (Homo sapiens (Human), UniProt P42336). As to the kind of experiment: PI3Kα enzymatic assay. It is filed as biochemical. Conditions: read-out: In vitro enzymatic activity (IC50) PI3Kα. As for the experimental part: as §1, §2
The next series deals with SKOV-3. As to the kind of experiment: In vitro cytological inhibitory activity (XTT). It is filed as cell-based. The note with it: Homo sapiens, SK-OV-3, 72 hrs. The procedure: SKOV-3: Human ovarian cancer cell line;
(§3) 1. Preparation of agents and compounds:
(§4) • 1.1 Preparation of phosphoric acid buffering solution (PBS): 8 g NaCl, 0.2 g KCl, 1.44 g Na2HPO4 and 0.24 g KH2PO4 were weighed and added to 800 mL ultrapure water. The mixture was adjusted to pH=7.4, and ultrapure water was added to the metered volume of IL. Then the autoclaving was conducted for 20 mins. • 1.2 Preparation of XTT detection working solution: 100 mg (2,3-Bis-(2-methoxy-4-nitro-5-sulfophenyl)-2H-tetrazolium-5-carboxanilide); 2,3-bis(2-methoxy-4-nitro-5-sulfophenyl)-5-[(phenylamino)carbonyl]-2H-tetrazolium hydroxide (XTT) powder was weighed, and dissolved under protection from light 300 mL of phenol red-free and serum-free RPMI1640 culture, which had been warmed up to 50° C. The resulting mixture was filtered, packaged and used immediately or in one week. The complete process was conducted under protection from light. • 1.3 Preparation of the test compound • Preparation of the stock solution of the test compound: The test compound powder was dissolved in DMSO in a concentration of 10 mM. • Preparation of the gradiently diluted solution of the test compound: 10 mM of the stock solution of the test compound was successively and gradiently diluted with DMSO by 4 folds for 10 concentrations. […]
(In general: Formazan colour is commonly taken as a measure of viable cells.)

Series [1] is described as follows: In vivo pharmacokinetics assay in rat. Conditions: male, SD, plasma, rats; for Vd: read-out: Vss. The text has this:
Test animals: male SD rats, weighing 190-260 g. Intravenous bolus injection (I.V.) and gavage (P.O.) administrations were each applied to three rats.
Compound 5, for both I.V and P.O administrations, was solubilized with a solution of 30% DMF+50% PEG400+20%(0.9% sodium chloride injection)(the pH being adjusted with a suitable amount of an aqueous hydrochloric acid solution (2 mol/L)).
Compound 6, for both I.V and P.O administrations, was solubilized with a solution of 30% DMF+30% PEG400+5%0.1 mol/lhydrochloric acid+[…] normal saline.
Compound 30 for I.V administration was solubilized with a solution of 30% DMF+50% PEG400+20% normal saline; Compound 30 for P.O administration was solubilized with a solution of 5% DMSO+30% polyoxyethylene castor oil+65% normal saline.
Compound 30 hydrochloride for I.V administration was solubilized with a solution of 30% DMF+50% PEG400+20% sterile water for injection.
I.V blood sampling time point: 0.083 h, 0.25 h, 0.5 h, 1 h, 2 h, 4 h, 6 h, 8 h and 24 h after the administration, P.O blood sampling time point: 0.17 h, 0.5 h, 1 h, 2 h, 4 h, 6 h, 8 h and 24 h after the administration.
About 100 μl of whole blood was taken at each time point, anticoagulated with heparin sodium, and centrifugated at 8,000 rpm in a high-speed centrifuge for 6 minutes to separate plasma, and the resulting plasma was frozen at −80° C. in a refrigerator.
The plasma sample was treated with a liquid-liquid extraction. 20 μL of plasma was taken. A solution of BEZ-235 (Novartis, Phase II) in tertbutylmethylether (600 μL, 10 ng/mL) was added as internal standard. The mixture was rotated vertically at 1500 rpm for 10 mins and then centrifugated at 12000 rpm for 5 mins. 400 μL of the supernate was taken and dried under nitrogen. The dried substance was redissolved in 200 μL methanol:water (7:3, V/V) for LC-MS/MS analysis.
Calculation Absolute bioavailability F%=[AUC]last (P.O)*Dose(I.V)/[AUC]last (I.V)*Dose(P.O)

The next series deals with A549. Description: In vitro cytological inhibitory activity (XTT). It is filed as cell-based. The note with it: Homo sapiens, 72 hrs. As for the experimental part: A549: Human lung cancer cell line;
as §3, §4

In another series the test system is PC-3. Description: In vitro cytological inhibitory activity (XTT). It is filed as cell-based. Conditions: Homo sapiens, 72 hrs. The procedure:
PC-3: Human prostatic carcinoma cell line;
as §3, §4

A further series has as its system U87MG. Description: In vitro cytological inhibitory activity (XTT). It is filed as cell-based. The note with it: Homo sapiens, U-87 MG, 72 hrs. As for the experimental part:
U87MG: Human brain astrocytoblast cell line;
as §3, §4

Counter-ions that a name gives are not always drawn.

Sequence of PI3Kα (P42336 whole entry): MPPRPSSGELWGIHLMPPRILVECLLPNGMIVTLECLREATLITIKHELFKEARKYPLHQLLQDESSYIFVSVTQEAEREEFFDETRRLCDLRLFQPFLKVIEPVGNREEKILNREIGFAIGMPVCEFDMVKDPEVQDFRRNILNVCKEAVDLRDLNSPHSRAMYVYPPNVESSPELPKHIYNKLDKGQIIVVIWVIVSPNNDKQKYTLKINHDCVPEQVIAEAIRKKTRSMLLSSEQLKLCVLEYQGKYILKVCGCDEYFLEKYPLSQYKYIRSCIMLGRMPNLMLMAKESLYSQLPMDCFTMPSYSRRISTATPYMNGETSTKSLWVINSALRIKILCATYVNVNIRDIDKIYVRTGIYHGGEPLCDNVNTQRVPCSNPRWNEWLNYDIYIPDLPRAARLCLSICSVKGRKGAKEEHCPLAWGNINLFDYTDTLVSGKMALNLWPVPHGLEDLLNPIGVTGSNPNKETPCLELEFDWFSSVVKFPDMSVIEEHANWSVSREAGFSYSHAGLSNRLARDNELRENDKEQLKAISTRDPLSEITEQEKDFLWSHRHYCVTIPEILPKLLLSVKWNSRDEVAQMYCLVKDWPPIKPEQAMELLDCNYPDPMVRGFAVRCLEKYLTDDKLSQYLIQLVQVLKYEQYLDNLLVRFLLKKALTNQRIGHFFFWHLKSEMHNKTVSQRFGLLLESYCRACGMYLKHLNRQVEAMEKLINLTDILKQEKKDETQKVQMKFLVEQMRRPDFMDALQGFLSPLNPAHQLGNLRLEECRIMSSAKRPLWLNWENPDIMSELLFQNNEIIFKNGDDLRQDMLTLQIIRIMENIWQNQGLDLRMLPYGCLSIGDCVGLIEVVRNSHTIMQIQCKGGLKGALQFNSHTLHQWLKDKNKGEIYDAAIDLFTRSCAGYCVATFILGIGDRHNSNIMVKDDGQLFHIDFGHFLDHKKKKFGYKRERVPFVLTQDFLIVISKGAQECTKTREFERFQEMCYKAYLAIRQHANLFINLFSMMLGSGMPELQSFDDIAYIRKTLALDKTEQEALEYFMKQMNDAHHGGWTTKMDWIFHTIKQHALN
Sequence of PI3Kα (P27986 whole entry partner): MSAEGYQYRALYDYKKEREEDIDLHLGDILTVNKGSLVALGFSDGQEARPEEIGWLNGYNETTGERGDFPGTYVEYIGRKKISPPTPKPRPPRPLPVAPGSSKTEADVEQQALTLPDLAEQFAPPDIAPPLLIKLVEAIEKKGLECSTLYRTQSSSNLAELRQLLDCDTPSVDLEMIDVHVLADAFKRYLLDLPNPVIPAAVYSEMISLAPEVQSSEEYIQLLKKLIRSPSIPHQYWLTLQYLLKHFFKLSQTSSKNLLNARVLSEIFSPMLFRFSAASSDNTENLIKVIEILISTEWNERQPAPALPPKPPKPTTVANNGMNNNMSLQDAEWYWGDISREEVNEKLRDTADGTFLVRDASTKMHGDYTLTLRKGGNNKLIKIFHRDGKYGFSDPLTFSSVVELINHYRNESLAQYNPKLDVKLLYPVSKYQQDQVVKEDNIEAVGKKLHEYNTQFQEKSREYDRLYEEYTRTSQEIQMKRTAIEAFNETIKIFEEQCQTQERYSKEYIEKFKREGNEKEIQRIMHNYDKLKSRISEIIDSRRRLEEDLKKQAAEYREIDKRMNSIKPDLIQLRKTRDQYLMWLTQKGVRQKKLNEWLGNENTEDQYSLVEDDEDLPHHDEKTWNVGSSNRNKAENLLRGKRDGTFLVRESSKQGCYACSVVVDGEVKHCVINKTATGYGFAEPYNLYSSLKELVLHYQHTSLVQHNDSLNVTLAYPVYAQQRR

The IC50 is the point on the concentration scale where inhibition reaches its midpoint. `Nc1ncc(-c2ccc3ncc4c(=O)[nH]c(=O)n(-c5cccc(C(F)(F)F)c5)c4c3n2)cn1` [Compound 20, 9-(2-aminopyrimidin-5-yl)-1-(3-(trifluoromethyl)phenyl)pyrimido[5,4-c][1,5]naphthyridine-2,4(1H,3H)-dione]: the IC50 stood at 2.66 nM at mTOR and 15.2 nM at PI3Kα.

`COc1ncc(-c2ccc3ncc4c(=O)[nH]c(=O)n(-c5cccc(C(F)(F)F)c5)c4c3n2)cn1` [Compound 17, 9-(2-methoxypyrimidin-5-yl)-1-(3-(trifluoromethyl)phenyl)pyrimido[5,4-c][1,5]naphthyridine-2,4(1H,3H)-dione]: the concentration for half-maximal inhibition (IC50) on mTOR is 39.3 nM; at PI3Kα, 40.7 nM.

Broadly, the AUC(0-inf) is the area under the concentration-time curve extrapolated to infinity. In general, AUC(0-t) refers to exposure summed from dosing to a finite time, without extrapolation to infinity. In general, clearance refers to the volume of plasma or blood freed of the substance per unit of time. One may read the half-life as how long it takes for the measured level to halve. High values mean slow decline, low ones rapid decline. In general, Cmax refers to the highest concentration seen after dosing. Usually Tmax stands for the time from dosing to the highest level. The compound `Cn1c(=O)c2cnc3ccc(-c4ccc(N)nc4)nc3c2n(-c2cccc(C(F)(F)F)c2)c1=O` [Compound 6] registered an IC50 in the series with SKOV-3 of 63.1 nM. In series [1] (intravenous, I.V, 2 mg/kg), this compound showed an AUC(0-inf) of 4470 ng·h/mL, an AUC(0-t) of 4450 ng·h/mL, a clearance of 7.67 mL/min/kg and a half-life of 3.15 h. In addition, the Vd in series [1] (intravenous, I.V, 2 mg/kg) came out at 1.95 L/kg. Moreover, the bioavailability in series [1] (oral, P.O 4 mg/kg vs I.V 2 mg/kg, read-out: F % (absolute bioavailability)) is 115%. Moreover, in series [1] (oral, P.O, 4 mg/kg), the AUC(0-inf) turned out to be 10300 ng·h/mL, the AUC(0-t) was 10200 ng·h/mL, the Cmax is 1120 ng/mL and the Tmax was found to be 2 h. In series [1] (oral, P.O, 4 mg/kg), this compound had a half-life of 3.92 h. This compound also came in with an IC50 in the series on A549 of 89.5 nM. Also, in the series with PC-3, the IC50 came out at 35.8 nM. The compound also had an IC50 in the series with U87MG of 37.6 nM.

In the case of `COc1ccc(-c2ccc3ncc4c(=O)[nH]c(=O)n(-c5cccc(C(F)(F)F)c5)c4c3n2)cn1` [Compound 2, 9-(6-methoxypyridin-3-yl)-1-(3-(trifluoromethyl)phenyl)pyrimido[5,4-c][1,5]naphthyridine-2,4(1H,3H)-dione], the IC50 on mTOR was 57 nM; on PI3Kα, 79 nM.

For the compound `O=c1[nH]c(=O)n(-c2cccc(C(F)(F)F)c2)c2c1cnc1ccc(-c3cnc4[nH]ccc4c3)nc12` [Compound 30 hydrochloride], in series [1] (intravenous, I.V, 2 mg/kg), the AUC(0-inf) came out at 1690 ng·h/mL, the AUC(0-t) turned out to be 1680 ng·h/mL, the clearance was 19.7 mL/min/kg and the half-life was 3.04 h. In series [1] (intravenous, I.V, 2 mg/kg), the Vd was 2.49 L/kg.

These data come from patent publication US9365572B2, “PI3K and/or mTOR inhibitor” (XUANZHU PHARMA CO., LTD., priority 2012, dated 2016).
